Results from EP3095787A1, “[…] ACTIVE COMPOUNDS AS DAG-LIPASE INHIBITORS” (Universiteit Leiden, priority 2015, dated 2016).
pKi: −log10 of the molar value.

Legend:
[1] = molecular target: T1, cannabinoid CB1 receptor (Homo sapiens, UniProt P21554); experiment: [3H]CP55940 displacement assay on CHOK1hCB1_bgal membranes; format: binding
T1 construct: expressed in transfected cells; host or cells: CHOK1hCB1_bgal (CHO-K1), membranes
Protocol: CHOK1hCB1_bgal cells (CHOK1 cell line expressing human cannabinoid receptor 1) were cultured in Ham's F12 Nutrient Mixture supplemented with 10% fetal calf serum, 1 mM glutamine, 50 U/mL penicillin, 50 µg/ml streptomycin, […] hygromycin and 800 µg/mL geneticin in a humidified atmosphere at 37°C and 5% CO2. Cells were subcultured twice a week at a ratio of 1:20 on 10-cm ø plates by trypsinization. For membrane preparation the cells were subcultured 1:10 and transferred to large 15-cm diameter plates.
The cells on thirty 15-cm ø plates were detached from the bottom by scraping them into 5 mL phosphate-buffered saline (PBS), collected in 12 mL Falcon tubes and centrifuged for 5 minutes at 200 x g (3,000 rpm). The pellets were resuspended in ice-cold 50 mM Tris-HCl buffer and 5 mM MgCl2 (pH 7.4). […] Membrane protein concentrations were measured using the BCA method.
[^3H]CP55940 displacement assays were used for high throughput screening of cold ligands and the determination of their affinity (Ki) and IC50 values. […] Nonspecific binding was determined in the presence of 10 µM AM630 (6-lodopravadoline; a selective inverse agonist for the cannabinoid receptor CB2). […] After 2 hours, the filter-bound radioactivity was determined by scintillation spectrometry using a Tri-Carb 2900 TR liquid scintillation counter (Perkin Elmer, Boston, MA).

[2] = test system: Neuro2A cells; experiment: Targeted lipidomics in Neuro2A cells; format: cell-based, mouse; details: in situ treatment 1h, 37 °C; n=4
Protocol: To test the cellular activity of inventive compound 25, the inventor used Neuro2A cells, which is a mouse neuroblastoma cell line known to express both DAGL-α and DAGL-β. In a targeted lipidomics experiment the effect of inventive compound 25 on the cellular levels of 2-AG and anandamide was determined.
Neuro2A cells were cultured as described above. Before inhibitor treatment, the culture medium was removed and the cells were washed with warm (37 °C) serum free medium (3x). The cells were treated with vehicle (DMSO) or inhibitor for 1h at 37 °C in serum free medium. […]
Endocannabinoids were measured using a chip-based nano liquid chromatography (LC) system coupled to a triple quadrupole mass spectrometer. […]
A 6440 Triple quadrupole equipped with a nonoESI source operating in positive mode (Agilent technologies, Walborn, Germany) was used for MS detection. […] Quantification was obtained using static MRM (multiple reaction monitoring) mode of the transistions at m/z 379.3 → 287.2 for 2AG, 348.3 → 62.2 for AEA and 387.3 → 294.2 for 2AGd8, 356.3 → 62.2 for AEAd8 (internal standards). […] Raw MS data were processes using mass hunter quantitative analysis work station (Agilent technologies). AEA and 2AG was quantified by using a matrix matched internal standard calibration curve. […]

T1 sequence (P21554 whole entry): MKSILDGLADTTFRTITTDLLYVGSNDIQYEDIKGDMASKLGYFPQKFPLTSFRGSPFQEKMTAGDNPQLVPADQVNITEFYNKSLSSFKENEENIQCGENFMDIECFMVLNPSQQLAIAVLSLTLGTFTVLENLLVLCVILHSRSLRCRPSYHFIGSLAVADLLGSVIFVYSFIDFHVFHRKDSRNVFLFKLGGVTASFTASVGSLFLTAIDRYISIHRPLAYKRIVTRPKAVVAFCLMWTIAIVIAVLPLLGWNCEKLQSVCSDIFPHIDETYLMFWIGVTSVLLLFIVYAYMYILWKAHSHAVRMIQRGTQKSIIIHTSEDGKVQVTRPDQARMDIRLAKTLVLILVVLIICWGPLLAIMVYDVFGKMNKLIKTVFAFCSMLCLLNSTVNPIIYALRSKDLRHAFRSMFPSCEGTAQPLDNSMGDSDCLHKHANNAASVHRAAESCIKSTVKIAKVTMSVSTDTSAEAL

For `Cc1ccc(-c2cnc3nc(C(=O)CCCCCc4ccccc4)oc3c2)cc1` [Compound 25, 1-(6-(p-Tolyl)oxazolo[4,5-b]pyridin-2-yl)-6-phenylhexan-1-one], the “displacement of 3H-CP55940 from the CB1 receptor” value ([1]; 10 µM) was “did not displace”, the pKi ([1]; CB1 receptor radioligand displacement) was under 5.00 and the anandamide levels [2] was “constant”. For the same molecule, the “basal 2-AG levels” value [2] was “dose dependently decreased”.
